This note sets out measurements from patent US11596639B2, “Substituted indole Mcl-1 inhibitors” (Vanderbilt University, priority 2016, dated 2023).

Read-outs that look alike come from different tables or passages of the source.

Assay [1] relates to H929 human cancer cell lines. In words: Cellular viability / proliferation (Cell TiterGlo, 72 h). The format is cell-based. In a few lines:
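Plating is at 1,000 cells/well in 10% FBS medium; after 24 h, compound is added as a 2-fold series starting at 50 μM with under 1% DMSO.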
A general note: ATP-based viability assays read luminescence as a measure of living cells.

Assay [2] has as its target Mcl-1 (Homo sapiens (Human), UniProt Q07820). Description: Fluorescence polarization anisotropy (FPA) competition assay, FITC-Bak or FITC-Bim BH3 peptide. The format is binding. Particulars: read-out: Ki for Inhibition of Mcl-1 by FPA assay. (In general: In fluorescence polarisation assays a small probe gives low polarisation when free and higher when bound to something large.)

Where [3] appears, read: Homo sapiens, NCI-H929, 72 h, read-out: GI50 on cellular proliferation of H929 human cancer cell lines, H929 cells, 72 h, Cell TiterGlo, 10% FBS.
[4] abbreviates: read-out: GI50 on cellular proliferation of H929 human cancer cell lines, H929 cells, 72 h, Cell TiterGlo, 10% FBS.

Chain of Mcl-1 (Q07820 172-327): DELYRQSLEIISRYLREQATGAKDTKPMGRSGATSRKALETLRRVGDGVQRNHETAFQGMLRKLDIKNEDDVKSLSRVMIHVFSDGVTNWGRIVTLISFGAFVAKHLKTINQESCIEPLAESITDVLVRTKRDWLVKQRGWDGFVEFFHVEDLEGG

In general, Ki refers to the dissociation constant of the complex between target and ligand, obtained from inhibition or displacement. Regarding `Cc1cc(OCCCc2c3n(c4c(-c5c(C)nn(C)c5C)c(Cl)ccc24)[C@H](C)CN(c2ccnc4ccc(C(=O)O)cc24)C3=O)cc(C)c1Cl` [Example 172, (R)-4-(7-Chloro-10-(3-(4-chloro-3,5-dimethylphenoxy)propyl)-4-methyl-1-oxo-6-(1,3,5-trimethyl-1H-pyrazol-4-yl)-3,4-dihydropyrazino[1,2-a]indol-2(1H)-yl)quinoline-6-carboxylic acid], the GI50 in assay [1] (setting [3]) was 320 nM. Also, the Ki in assay [2] was less than 1 nM.
The like results for `CCn1cc(C(=O)O)c2c(N3C[C@@H](C)n4c(c(CCCOc5cc(C)c(Cl)c(C)c5)c5ccc(Cl)c(-c6c(C)nn(C)c6C)c54)C3=O)cccc21` [Example 173, 4-[(4R)-7-chloro-10-[3-(4-chloro-3,5-dimethyl-phenoxy)propyl]-4-methyl-1-oxo-6-(1,3,5-trimethylpyrazol-4-yl)-3,4-dihydropyrazino[1,2-a]indol-2-yl]-1-ethyl-indole-3-carboxylic acid] were, in that order, 3300 nM and 2.7 nM.
The like results for `Cc1cc(OCCCc2c3n(c4c(-c5c(C)nn(C)c5C)c(Cl)ccc24)[C@H](C)CN(c2cc4cc(C(=O)O)ccc4n2C)C3=O)cc(C)c1Cl` [Example 174, 2-[(4R)-7-chloro-10-[3-(4-chloro-3,5-dimethyl-phenoxy)propyl]-4-methyl-1-oxo-6-(1,3,5-trimethylpyrazol-4-yl)-3,4-dihydropyrazino[1,2-a]indol-2-yl]-1-methyl-indole-5-carboxylic acid] were, in that order, 6300 nM and 4.2 nM.
As to `Cc1cc(OCCCc2c3n(c4c(-c5c(C)nn(C)c5C)c(Cl)ccc24)[C@H](C)CN(c2nn(C)c4cccc(C(=O)O)c24)C3=O)cc(C)c1Cl` [Example 175, (R)-3-(7-Chloro-10-(3-(4-chloro-3,5-dimethylphenoxy)propyl)-4-methyl-1-oxo-6-(1,3,5-trimethyl-1H-pyrazol-4-yl)-3,4-dihydropyrazino[1,2-a]indol-2(1H)-yl)-1-methyl-1H-indazole-4-carboxylic acid], the GI50 in assay [1] (setting [4]) was determined as 340 nM. Besides, the Ki in assay [2] was less than 1 nM.
Take `Cc1cc(OCCCc2c3n(c4c(-c5c(C)ncnc5C)c(Cl)ccc24)CCCN(c2cn(C)c4cc(C(=O)O)ccc24)C3=O)cc(C)c1Cl` [Example 176, 3-[8-Chloro-11-[3-(4-chloro-3,5-dimethyl-phenoxy)propyl]-7-(4,6-dimethylpyrimidin-5-yl)-1-oxo-4,5-dihydro-3H-[1,4]diazepino[1,2-a]indol-2-yl]-1-methyl-indole-6-carboxylic acid]: the GI50 in assay [1] (setting [3]) was 410 nM. In addition, the inhibition constant (Ki) in assay [2] was less than 1 nM.
For the molecule `Cc1cc(OCCCc2c3n(c4c(-c5c(C)ncnc5C)c(Cl)ccc24)[C@H](C)CN(c2cn(C)c4ccc(C(=O)O)cc24)C3=O)cc(C)c1Cl` [Example 177, 3-[(4R)-7-chloro-10-[3-(4-chloro-3,5-dimethyl-phenoxy)propyl]-6-(4,6-dimethylpyrimidin-5-yl)-4-methyl-1-oxo-3,4-dihydropyrazino[1,2-a]indol-2-yl]-1-methyl-indole-5-carboxylic acid], in assay [1] (setting [3]), the GI50 turned out to be 270 nM. The inhibitory constant (Ki) in assay [2] was less than 1 nM.
Taken in the same sequence, the figures for `Cc1cc(OCCCc2c3n(c4c(-c5c(C)nn(C)c5C)c(Cl)ccc24)[C@H](C)CN(c2cccc4cc(C(=O)O)n(C)c24)C3=O)cc(C)c1Cl` [Example 178, (R)-7-(7-Chloro-10-(3-(4-chloro-3,5-dimethylphenoxy)propyl)-4-methyl-1-oxo-6-(1,3,5-trimethyl-1H-pyrazol-4-yl)-3,4-dihydropyrazino[1,2-a]indol-2(1H)-yl)-1-methyl-1H-indole-2-carboxylic acid] were less than 200 nM and less than 1 nM.
Take `Cc1cc(OCCCc2c3n(c4c(-c5c(C)nn(C)c5C)c(Cl)ccc24)[C@H](C)CN(c2nn(C)c4cccc(C(=O)O)c24)C3=O)cc(C)c1Cl` [Example 179, (R)-3-(7-Chloro-10-(3-(4-chloro-3,5-dimethylphenoxy)propyl)-4-methyl-1-oxo-6-(1,3,5-trimethyl-1H-pyrazol-4-yl)-3,4-dihydropyrazino[1,2-a]indol-2(1H)-yl)-1-methyl-1H-indazole-4-carboxylic acid]: the GI50 in assay [1] (setting [4]) stood at 4700 nM. Also, the inhibition constant Ki in assay [2] is less than 1 nM.
For the molecule `Cc1cc(OCCCc2c3n(c4c(-c5c(C)nn(C)c5C)c(Cl)ccc24)[C@H](C)CN(c2cc4ccc(C(=O)O)cc4n2C)C3=O)cc(C)c1Cl` [Example 180, 2-[(4R)-7-chloro-10-[3-(4-chloro-3,5-dimethyl-phenoxy)propyl]-4-methyl-1-oxo-6-(1,3,5-trimethylpyrazol-4-yl)-3,4-dihydropyrazino[1,2-a]indol-2-yl]-1-methyl-indole-6-carboxylic acid], the GI50 in assay [1] (setting [3]) stood at 1500 nM. Moreover, the inhibitory constant (Ki) in assay [2] was 2.1 nM.
The like results for `COCCn1cc(C(=O)O)c2c(N3C[C@@H](C)n4c(c(CCCOc5cc(C)c(Cl)c(C)c5)c5ccc(Cl)c(-c6c(C)nn(C)c6C)c54)C3=O)cccc21` [Example 181, 4-[(4R)-7-chloro-10-[3-(4-chloro-3,5-dimethyl-phenoxy)propyl]-4-methyl-1-oxo-6-(1,3,5-trimethylpyrazol-4-yl)-3,4-dihydropyrazino[1,2-a]indol-2-yl]-1-(2-methoxyethyl)indole-3-carboxylic acid] were, in that order, 2000 nM and 1.4 nM.
In the case of `Cc1cc(OCCCc2c3n(c4c(-c5c(C)nn(C)c5C)c(Cl)ccc24)[C@H](C)CN(c2cccc4c2c(C(=O)O)cn4C)C3=O)cc(C)c1Cl` [Example 182, 4-[(4R)-7-chloro-10-[3-(4-chloro-3,5-dimethyl-phenoxy)propyl]-4-methyl-1-oxo-6-(1,3,5-trimethylpyrazol-4-yl)-3,4-dihydropyrazino[1,2-a]indol-2-yl]-1-methyl-indole-3-carboxylic acid], the GI50 in assay [1] (setting [3]) is 1500 nM. Moreover, the Ki in assay [2] is less than 1 nM.
For the molecule `Cc1cc(N2C[C@@H](C)n3c(c(CCCOc4cc(C)c(Cl)c(C)c4)c4ccc(Cl)c(-c5c(C)nn(C)c5C)c43)C2=O)c2c(c1)c(C(=O)O)cn2C` [Example 183, (R)-7-(7-chloro-10-(3-(4-chloro-3,5-dimethylphenoxy)propyl)-4-methyl-1-oxo-6-(1,3,5-trimethyl-1H-pyrazol-4-yl)-3,4-dihydropyrazino[1,2-a]indol-2(1H)-yl)-1,5-dimethyl-1H-indole-3-carboxylic acid], the GI50 in assay [1] (setting [4]) was 360 nM. The inhibition constant (Ki) in assay [2] is less than 1 nM.
Consider `Cc1cc(OCCCc2c3n(c4c(-c5c(C)nn(C)c5C)c(Cl)ccc24)[C@H](C)CN(c2cccc4nc(C(=O)O)ccc24)C3=O)cc(C)c1Cl` [Example 184, (R)-5-(7-chloro-10-(3-(4-chloro-3,5-dimethylphenoxy)propyl)-4-methyl-1-oxo-6-(1,3,5-trimethyl-1H-pyrazol-4-yl)-3,4-dihydropyrazino[1,2-a]indol-2(1H)-yl)quinoline-2-carboxylic acid], for which the GI50 in assay [1] (setting [3]) came to 770 nM. For the same molecule, the inhibitory constant (Ki) in assay [2] is less than 1 nM.
For the molecule `Cc1cc(OCCCc2c3n(c4c(-c5c(C)nn(C)c5C)c(Cl)ccc24)[C@H](C)CN(c2ccc4cc(C(=O)O)ccc4c2)C3=O)cc(C)c1Cl` [Example 185, (R)-6-(7-Chloro-10-(3-(4-chloro-3,5-dimethylphenoxy)propyl)-4-methyl-1-oxo-6-(1,3,5-trimethyl-1H-pyrazol-4-yl)-3,4-dihydropyrazino[1,2-a]indol-2(1H)-yl)-2-naphthoic acid], the GI50 in assay [1] (setting [3]) worked out at 2900 nM. Besides, the inhibition constant Ki in assay [2] was determined as 4.6 nM.
